Test results reported in patent US11344510B2, “Arylcyclohexylamine derivatives and their use in the treatment of psychiatric disorders” (Gilgamesh Pharmaceuticals, Inc., priority 2019, dated 2022).

Columns and labels:
[1] = HLM stability (Low Activity, Alternative Method); assay type: in vitro ADME; settings: both sexes, human, liver microsomes, pH 7.4, Condition 1 column, values marked *: Low Activity, 0.50 mg protein/mL
Method: (§1) HLM Stability (Low Activity, Alternative Method). Pooled HLM from adult male and female donors (Corning 452117) were used. Microsomal incubations were carried out in multi-well plates. Liver microsomal incubation medium consisted of PBS (100 mM, pH 7.4), MgCl2 (1 mM), and NADPH (1 mM), with 0.50 mg of liver microsomal protein per mL. Control incubations were performed by replacing the NADPH-cofactor system with PBS. Test compounds (1 μM, final solvent concentration 1.0%) were incubated with microsomes at 37° C. with constant shaking. Six time points over 60 minutes were analyzed, with 60 μL aliquots of the reaction mixture being drawn at each time point. The reaction aliquots were stopped by adding 180 μL of cold (4° C.) acetonitrile containing 200 ng/mL tolbutamide and 200 ng/mL labetalol as internal standards (IS), followed by shaking for 10 minutes, and then protein sedimentation by centrifugation at 4000 rpm for 20 minutes at 4° C. Supernatant samples (80 μL) were diluted with water (240 μL) and analyzed for parent compound remaining using a fit-for-purpose liquid chromatography-tandem mass spectrometry (LC-MS/MS) method.
(§2) Data Analysis. The elimination constant (kel), half-life (t1/2) and intrinsic clearance (Clint) were determined in a plot of […] versus time, using linear regression analysis.

[2] = molecular target: T1, vesicular monoamine transporter 2 (VMAT2) (Homo sapiens, UniProt Q05940); test: Fluorescent substrate uptake inhibition, VMAT2; assay type: cell-based; settings: 10 μM, transfected cells
T1 construct: expressed in transfected cells
Method: (§3) Uptake Inhibition. The ability of test compounds to block monoamine uptake by SERT, NET, DAT, and VMAT2 was determined using the Neurotransmitter Transporter Uptake Assay Kit manufactured by Molecular Devices (Cat #R8173). Briefly, stably transfected cells expressing the MAT of interest (HEK293 cells for SERT and NET; CHO cells for DAT) were grown and plated into 384-well plates at a concentration of 20,000 cells per well. Plates were then incubated for 16-20 h at 37° C. and 5% CO2. The medium was then aspirated and replaced with 25 μL of assay buffer (20 mM HEPES in HBSS, containing 0.1% BSA) containing the test compounds at the appropriate concentrations. Plates were then centrifuged at 300 rpm for 15 s and then incubated at 37° C. for 30 minutes. At this time, 25 μL of the proprietary fluorescent dye solution was added, the plates were incubated at 37° C. for 60 minutes, and then fluorescence was quantified on a plate reader (excitation wavelength=440 nm, emission wavelength=520 nm). The proprietary dye solution contains a mixture of 1) a fluorescent dye that mimics the endogenous substrates of MATs and is thereby actively transported to the intracellular compartment in the absence of an inhibitor and 2) a masking dye that inhibits the fluorescence of dye 1 in the extracellular compartment. Therefore, the overall fluorescence of the system increases as the fluorescent dye is transported into the cells.

[3] = molecular target: T2, norepinephrine transporter (NET) (Homo sapiens, UniProt P23975); test: Fluorescent substrate uptake inhibition, NET; assay type: cell-based; settings: 10 μM, HEK293 cells expressing NET
T2 construct: expressed in transfected cells; host or cells: HEK293
Method: as §3

[4] = molecular target: T3, dopamine transporter (DAT) (Homo sapiens, UniProt Q01959); test: Fluorescent substrate uptake inhibition, DAT; assay type: cell-based; settings: 10 μM, CHO cells expressing DAT
T3 construct: expressed in transfected cells; host or cells: CHO (uptake)
Method: as §3

[5] = MLM stability (Low Activity); assay type: in vitro ADME, CD-1 mice; settings: male, CD-1, mouse, liver microsomes, pH 7.4, Condition 1 (Low Activity), 0.50 mg protein/mL
Method: as §1, with “MLM” for “HLM”, “Activity).” for “Activity, Alternative Method).”, “from” for “from adult”, “CD-1 mice (XenoTech M1000)” for “and female donors (Corning 452117)”
as §2

[6] = molecular target: MK-801 binding site of the N-methyl-D-aspartate receptor (NMDAR); test: NMDAR radioligand binding with [3H]MK-801, Method B; parameters: species or system Sprague Dawley rat; settings: MK-801 site, Method B, male Sprague Dawley rat cortex, 5.0 nM [3H]MK-801; read-out: NMDAR Ki ± SEM
Method: Radioligand Binding—Method B. Affinity of the test compounds for NMDAR was determined in radioligand binding experiments with [^3H]MK-801 by WuXi AppTec (Hong Kong) Limited, under the conditions described in Table 13.

[7] = RLM stability (Low Activity); assay type: in vitro ADME, Sprague Dawley rats; settings: male, Sprague Dawley, rat, liver microsomes, pH 7.4, Condition 1 (Low Activity), 0.50 mg protein/mL
Method: as §1, with “RLM” for “HLM”, “Activity).” for “Activity, Alternative Method).”, “from” for “from adult”, “Sprague Dawley rats (XenoTech R1000)” for “and female donors (Corning 452117)”
as §2

[8] = molecular target: T4, serotonin transporter (SERT) (Homo sapiens, UniProt P31645); test: Fluorescent substrate uptake inhibition, SERT; assay type: cell-based; settings: 10 μM, HEK293 cells expressing SERT
T4 construct: expressed in transfected cells; host or cells: HEK293
Method: as §3

[9] = HLM stability (High Activity); assay type: in vitro ADME; settings: both sexes, human, liver microsomes, pH 7.4, Condition 2 (High Activity), 1.0 mg protein/mL
Method: (§4) HLM Stability (High Activity). Pooled HLM from adult male and female donors (XenoTech H0630) were used. Microsomal incubations were carried out in 96-well plates in 5 aliquots of 40 μL, each (one for each time point). Liver microsomal incubation medium consisted of PBS (100 mM, pH 7.4), MgCl2 (3.3 mM), NADPH (3 mM), glucose-6-phosphate (5.3 mM), and glucose-6-phosphate dehydrogenase (0.67 units/mL), with 1.0 mg of liver microsomal protein per mL. Control incubations were performed by replacing the NADPH-cofactor system with PBS. Test compounds (1 μM, final solvent concentration 1.6%) were incubated with microsomes at 37° C., shaking at 100 rpm. Incubations were performed in duplicate. Five time points over 60 minutes were analyzed. The reactions were stopped by adding 12 volumes of 90% acetonitrile-water to incubation aliquots, followed by protein sedimentation by centrifugation at 5500 rpm for 3 minutes. Supernatants were analyzed for parent compound remaining using a fit-for-purpose liquid chromatography-tandem mass spectrometry (LC-MS/MS) method, with authentic samples of each analyte used for identity confirmation.
as §2

[10] = MLM stability (High Activity); assay type: in vitro ADME, BALB/c mice; settings: male, BALB/c, mouse, liver microsomes, pH 7.4, Condition 2 (High Activity), 1.0 mg protein/mL
Method: as §4, with “MLM” for “HLM”, “from” for “from adult”, “BALB/c mice” for “and female donors”, “M3000)” for “H0630)”, “μL” for “μL,”, “9” for “12”
as §2

T2 sequence (P23975 whole entry, species assumed): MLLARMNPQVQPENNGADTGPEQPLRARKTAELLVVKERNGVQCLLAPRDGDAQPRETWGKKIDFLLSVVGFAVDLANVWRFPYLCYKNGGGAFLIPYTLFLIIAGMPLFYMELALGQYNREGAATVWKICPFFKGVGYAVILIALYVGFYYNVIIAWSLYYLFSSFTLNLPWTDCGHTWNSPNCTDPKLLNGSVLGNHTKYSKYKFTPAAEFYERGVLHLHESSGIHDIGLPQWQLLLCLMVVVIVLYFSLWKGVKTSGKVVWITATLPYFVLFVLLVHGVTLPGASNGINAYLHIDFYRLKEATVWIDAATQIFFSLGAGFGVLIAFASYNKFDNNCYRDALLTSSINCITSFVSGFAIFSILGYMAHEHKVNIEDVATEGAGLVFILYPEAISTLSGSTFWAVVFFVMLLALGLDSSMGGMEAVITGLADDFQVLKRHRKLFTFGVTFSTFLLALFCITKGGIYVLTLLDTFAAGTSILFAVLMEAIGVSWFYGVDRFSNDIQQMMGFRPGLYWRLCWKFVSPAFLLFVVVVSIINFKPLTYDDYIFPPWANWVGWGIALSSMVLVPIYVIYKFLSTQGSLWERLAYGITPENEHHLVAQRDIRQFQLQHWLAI
T4 sequence (P31645 whole entry, species assumed): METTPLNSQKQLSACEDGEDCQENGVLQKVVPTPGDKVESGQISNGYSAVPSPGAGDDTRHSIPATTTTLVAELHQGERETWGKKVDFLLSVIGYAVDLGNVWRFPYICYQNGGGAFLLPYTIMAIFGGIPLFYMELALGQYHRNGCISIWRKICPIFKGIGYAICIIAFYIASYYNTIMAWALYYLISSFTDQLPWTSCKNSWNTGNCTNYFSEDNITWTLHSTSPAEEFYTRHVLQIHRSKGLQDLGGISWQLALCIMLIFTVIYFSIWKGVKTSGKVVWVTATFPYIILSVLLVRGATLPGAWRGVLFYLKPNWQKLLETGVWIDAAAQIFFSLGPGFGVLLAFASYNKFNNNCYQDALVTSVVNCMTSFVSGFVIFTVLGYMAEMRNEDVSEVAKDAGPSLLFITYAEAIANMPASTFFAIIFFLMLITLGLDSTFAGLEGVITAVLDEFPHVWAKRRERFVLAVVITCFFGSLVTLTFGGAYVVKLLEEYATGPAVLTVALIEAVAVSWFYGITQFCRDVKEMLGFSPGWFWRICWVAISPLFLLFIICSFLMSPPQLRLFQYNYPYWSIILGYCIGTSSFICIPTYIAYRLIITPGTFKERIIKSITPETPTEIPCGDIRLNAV
T3 sequence (Q01959 whole entry, species assumed): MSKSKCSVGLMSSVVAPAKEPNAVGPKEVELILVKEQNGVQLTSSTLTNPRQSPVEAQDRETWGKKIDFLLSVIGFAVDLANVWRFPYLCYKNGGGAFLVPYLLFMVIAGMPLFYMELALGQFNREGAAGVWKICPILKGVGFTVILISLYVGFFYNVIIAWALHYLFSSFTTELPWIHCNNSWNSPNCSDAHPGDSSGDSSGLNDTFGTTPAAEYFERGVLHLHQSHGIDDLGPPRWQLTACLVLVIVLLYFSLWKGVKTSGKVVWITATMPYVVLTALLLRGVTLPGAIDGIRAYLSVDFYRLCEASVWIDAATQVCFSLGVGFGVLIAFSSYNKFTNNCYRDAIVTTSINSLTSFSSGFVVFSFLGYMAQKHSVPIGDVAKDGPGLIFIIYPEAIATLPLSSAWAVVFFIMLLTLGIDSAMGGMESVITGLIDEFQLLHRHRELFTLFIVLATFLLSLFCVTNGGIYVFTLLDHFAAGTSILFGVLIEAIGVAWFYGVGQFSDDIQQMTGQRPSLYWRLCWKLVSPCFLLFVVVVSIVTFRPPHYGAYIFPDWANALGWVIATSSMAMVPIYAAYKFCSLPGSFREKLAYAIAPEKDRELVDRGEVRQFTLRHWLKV
T1 sequence (Q05940 whole entry, species assumed): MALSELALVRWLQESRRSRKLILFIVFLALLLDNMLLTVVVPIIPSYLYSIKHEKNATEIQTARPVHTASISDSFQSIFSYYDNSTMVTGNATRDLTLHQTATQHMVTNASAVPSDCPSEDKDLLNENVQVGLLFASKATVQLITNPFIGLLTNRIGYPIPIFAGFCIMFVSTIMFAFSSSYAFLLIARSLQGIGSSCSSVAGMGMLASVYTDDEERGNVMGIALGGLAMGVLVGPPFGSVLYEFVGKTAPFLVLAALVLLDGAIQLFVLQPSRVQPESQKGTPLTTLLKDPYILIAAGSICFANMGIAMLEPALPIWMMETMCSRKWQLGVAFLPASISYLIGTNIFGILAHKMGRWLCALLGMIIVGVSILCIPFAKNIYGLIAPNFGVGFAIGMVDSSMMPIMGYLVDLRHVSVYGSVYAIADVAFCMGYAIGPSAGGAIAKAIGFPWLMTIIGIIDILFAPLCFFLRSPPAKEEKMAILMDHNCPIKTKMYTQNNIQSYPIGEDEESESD

CC1CCN1C1(c2ccccc2)CCCCC1=O (stereo not drawn) [Compound 128mix, 2-(2-methylazetidin-1-yl)-2-phenylcyclohexan-1-one]
half-life at 1 μM [1]: 87 min | microsomal CLint at 1 μM [1]: 15.9 µL/min/mg | inhibition at 10 µM [2]: 23.4% | inhibition at 10 µM [3]: -2.9% | inhibition at 10 µM [4]: 19.2% | half-life at 1 μM [5]: 20.3 min | microsomal CLint at 1 μM [5]: 68.3 µL/min/mg | Ki [6]: 1.9 µM | half-life at 1 μM [7]: 27.4 min | microsomal CLint at 1 μM [7]: 50.6 µL/min/mg | inhibition at 10 µM [8]: 81.9%

CCN(CC)[C@]1(c2ccccc2)CCCCC1=O [Compound 25S, (S)-2-(diethylamino)-2-phenylcyclohexanone]
half-life at 1 μM [1]: 42 min | microsomal CLint at 1 μM [1]: 33 µL/min/mg | inhibition at 10 µM [2]: 1.7% | inhibition at 10 µM [3]: -0.13% | inhibition at 10 µM [4]: 24.9% | half-life at 1 μM [5]: 8.6 min | microsomal CLint at 1 μM [5]: 161 µL/min/mg | Ki [6]: 5.2 µM | half-life at 1 μM [7]: 14.5 min | microsomal CLint at 1 μM [7]: 95.4 µL/min/mg | inhibition at 10 µM [8]: 45.6%

CCN(CC)[C@@]1(c2ccccc2)CCCCC1=O [Compound 25R, (R)-2-(diethylamino)-2-phenylcyclohexanone]
half-life at 1 μM [1]: 49 min | microsomal CLint at 1 μM [1]: 28.3 µL/min/mg | inhibition at 10 µM [2]: -10.3% | inhibition at 10 µM [3]: 20.8% | inhibition at 10 µM [4]: 20.8% | half-life at 1 μM [5]: 8.5 min | microsomal CLint at 1 μM [5]: 163 µL/min/mg | Ki [6]: 5.5 µM | half-life at 1 μM [7]: 15.3 min | microsomal CLint at 1 μM [7]: 90.3 µL/min/mg | inhibition at 10 µM [8]: 26.9%

O=C1CCCC[C@]1(NCCO)c1ccccc1 [Compound 30S, (S)-2-((2-hydroxyethyl)amino)-2-phenylcyclohexan-1-one]
half-life at 1 μM [9]: 11.4 min | microsomal CLint at 1 μM [9]: 61 µL/min/mg | inhibition at 10 µM [2]: 23.2% | inhibition at 10 µM [3]: 22.3% | inhibition at 10 µM [4]: 18.7% | half-life at 1 μM [10]: 4.3 min | microsomal CLint at 1 μM [10]: 162 µL/min/mg | Ki [6]: 23 µM | inhibition at 10 µM [8]: 51.9%

CN[C@@]1(c2ccccc2C)CCCCC1=O [Compound 38R, (R)-2-(methylamino)-2-(o-tolyl)cyclohexan-1-one]
half-life at 1 μM [9]: 111 min | microsomal CLint at 1 μM [9]: 6 µL/min/mg | inhibition at 10 µM [2]: 2.9% | inhibition at 10 µM [3]: 20.3% | inhibition at 10 µM [4]: -2.2% | half-life at 1 μM [10]: 30 min | microsomal CLint at 1 μM [10]: 23 µL/min/mg | Ki [6]: 0.74 µM | inhibition at 10 µM [8]: 41.5%

O=C1CCCC[C@]1(NCCF)c1ccccc1 [Compound 86S, (S)-2-((2-fluoroethyl)amino)-2-phenylcyclohexan-1-one]
half-life at 1 μM [9]: 61.9 min | microsomal CLint at 1 μM [9]: 11 µL/min/mg | inhibition at 10 µM [2]: -5.5% | inhibition at 10 µM [3]: 12.2% | inhibition at 10 µM [4]: 20.8% | half-life at 1 μM [10]: 8.5 min | microsomal CLint at 1 μM [10]: 82 µL/min/mg | Ki [6]: 1.3 µM | inhibition at 10 µM [8]: 14.1%

CN[C@]1(c2ccccc2C)CCCCC1=O [Compound 38S, (S)-2-(methylamino)-2-(o-tolyl)cyclohexan-1-one]
half-life at 1 μM [9]: 110 min | microsomal CLint at 1 μM [9]: 6 µL/min/mg | inhibition at 10 µM [2]: -11.2% | inhibition at 10 µM [3]: 2.7% | inhibition at 10 µM [4]: 8.3% | half-life at 1 μM [10]: 22.4 min | microsomal CLint at 1 μM [10]: 31 µL/min/mg | Ki [6]: 0.24 µM | inhibition at 10 µM [8]: 39.7%

O=C1CCCC[C@@]1(NCCF)c1ccccc1 [Compound 86R, (R)-2-((2-fluoroethyl)amino)-2-phenylcyclohexan-1-one]
half-life at 1 μM [9]: 55.8 min | microsomal CLint at 1 μM [9]: 12 µL/min/mg | inhibition at 10 µM [2]: -8.9% | inhibition at 10 µM [3]: 11.4% | inhibition at 10 µM [4]: 13.6% | half-life at 1 μM [10]: 6.2 min | microsomal CLint at 1 μM [10]: 113 µL/min/mg | Ki [6]: 7.1 µM | inhibition at 10 µM [8]: 7.1%

O=C1CCCC[C@@]1(NCCO)c1ccccc1 [Compound 30R, (R)-2-((2-hydroxyethyl)amino)-2-phenylcyclohexan-1-one]
half-life at 1 μM [9]: 23 min | microsomal CLint at 1 μM [9]: 30 µL/min/mg | inhibition at 10 µM [2]: 16.3% | inhibition at 10 µM [3]: 3.5% | inhibition at 10 µM [4]: 8.5% | half-life at 1 μM [10]: 6.5 min | microsomal CLint at 1 μM [10]: 106 µL/min/mg | Ki [6]: > 23 µM | inhibition at 10 µM [8]: 1.2%
